{
  "source": "patent US8846570B2",
  "about": "“Herbicidal compositions comprising 4-amino-3-chloro-5-fluoro-6-(4-chloro-2-fluoro-3-methoxyphenyl)pyridine-2-carboxylic acid or a derivative thereof and microtubule inhibiting herbicides” (Dow AgroSciences LLC, priority 2012, dated 2014)",
  "experiment_in_all_cases": "In-water applied, transplanted paddy rice, greenhouse: visual weed control",
  "format_in_all_cases": "in vivo",
  "key": {"[1]": {"system": "Echinochloa crus-galli (L.) Beauv. (ECHCG)", "conditions": "21 DAA", "description": "(§1) Weed seeds or nutlets of the desired test plant species were planted in puddled soil (mud) prepared by mixing a shredded, non-sterilized mineral soil (50.5 percent silt, 25.5 percent clay, and 24 percent sand, with a pH of about 7.6 and an organic matter content of about 2.9 percent) and water at a 1:1 volumetric ratio. The prepared mud was dispensed in 365 mL aliquots into 16-ounce (oz.) non-perforated plastic pots with a surface area of 86.59 square centimeters (cm^2) leaving a headspace of 3 centimeters (cm) in each pot. Mud was allowed to dry overnight prior to planting or transplanting. Rice seeds were planted in Sun Gro MetroMix® 306 planting mixture, which typically has a pH of 6.0 to 6.8 and an organic matter content of about 30 percent, in plastic plug trays. Seedlings at the second or third leaf stage of growth were transplanted into 860 mL of mud contained in 32-oz. non-perforated plastic pots with a surface area of 86.59 cm^2 4 days prior to herbicide application. The paddy was created by filling the headspace of the pots with 2.5 to 3 cm of water. When required to ensure good germination and healthy plants, a fungicide treatment and/or other chemical or physical treatment was applied. The plants were grown for 4-22 days in a greenhouse with an approximate 14 h photoperiod which was maintained at about 29° C. during the day and 26° C. during the night. Nutrients were added as Osmocote® (19:6:12, N:P:K+minor nutrients) at 2 g per 16.-oz. pot and 4 g per 32-oz. pot. Water was added on a regular basis to maintain the paddy flood, and supplemental lighting was provided with overhead metal halide 1000-Watt lamps as necessary. The plants were employed for testing when they reached the first through fourth true leaf stage.\n(§2) Treatments consisted of the acid or esters of 4-amino-3-chloro-5-fluoro-6-(4-chloro-2-fluoro-3-methoxy-phenyl)pyridine-2-carboxylic acid (compound A) each formulated as an SC and various herbicidal components alone and in combination. Forms of compound A were applied on an acid equivalent basis.\n(§3) Treatment requirements for each compound or herbicidal component were calculated based upon the rates being tested, the concentration of active ingredient or acid equivalent in the formulation, an application volume of 2 mL per component per pot, and an application area of 86.59 cm^2 per pot.\n(§4) For formulated compounds, a measured amount was placed in an individual 100 or 200 mL glass vial and was dissolved in a volume of 1.25% (v/v) Agri-Dex® crop oil concentrate to obtain application solutions.\n(§5) For technical grade compounds, a weighed amount was placed in an individual 100 to 200 mL glass vial and was dissolved in a volume of acetone to obtain concentrated stock solutions. […] The concentrated stock solutions obtained were diluted with an equivalent volume of an aqueous mixture containing 2.5% (v/v) crop oil concentrate so that the final application solutions contained 1.25% (v/v) crop oil concentrate.\n(§6) Applications were made by injecting, with a pipetter, appropriate amounts of the application solutions into the aqueous layer of the paddy. Control plants were treated in the same manner with the solvent blank. Applications were made so that all treated plant material received the same concentrations of acetone and crop oil concentrate.\n(§7) The treated plants and control plants were placed in a greenhouse as described above and water was added as needed to maintain a paddy flood. After approximately 3 weeks the condition of the test plants as compared with that of the untreated plants was determined visually and scored on a scale of 0 to 100 percent where 0 corresponds to no injury or growth inhibition and 100 corresponds to complete kill.\n(§8) Colby's equation was used to determine the herbicidal effects expected from the mixtures (Colby, S. R. 1967. Calculation of the synergistic and antagonistic response of herbicide combinations. Weeds 15:20-22.). […]"}, "[2]": {"system": "Schoenoplectus Maritimes (L.) Lye (SCPMA)", "conditions": "21 DAA", "description": "as §1, §2, §3, §4, §5, §6, §7, §8"}, "[3]": {"system": "Leptochloa chinensis (L.) Nees (LEFCH)", "conditions": "21 DAA", "description": "as §1, §2, §3, §4, §5, §6, §7, §8"}, "[4]": {"system": "Echinochloa oryzoides (Ard.) Fritsch (ECHOR)", "conditions": "21 DAA", "description": "as §1, §2, §3, §4, §5, §6, §7, §8"}, "[5]": {"system": "Cyperus rotundus L. (CYPRO)", "description": "as §1, with “When required to ensure good germination and healthy plants, a fungicide treatment and/or other chemical or physical treatment was applied. The plants were grown for 4-22 days in a greenhouse with an approximate 14 h photoperiod which was maintained at about 29° C. during the day and 26° C. during the night.” left out\nForms of compound A were applied on an acid equivalent basis.\nas §4, §5, §6, §7\nColby's equation was used to determine the herbicidal effects expected from the mixtures (Colby, S. R. 1967. Calculation of the synergistic and antagonistic response of herbicide combinations. Weeds 15:20-22.).\nThe following equation was used to calculate the expected activity of mixtures containing two active ingredients, A and B: Expected=A+B−(A×B/100)"}},
  "data": [
    {"smiles": "COc1c(Cl)ccc(-c2nc(C(=O)O)c(Cl)c(N)c2F)c1F", "note": "[Compound A Acid, 4-amino-3-chloro-6-(4-chloro-2-fluoro-3-methoxyphenyl)-5-fluoropyridine-2-carboxylic acid]", "values": [
      {"measurement": "Visual Weed Control (%) Obs", "setting": "[1]; 8.75 g ae/ha", "value": 0, "unit": "%"},
      {"measurement": "Visual Weed Control (%) Obs", "setting": "[1]; 17.5 g ae/ha", "value": 0, "unit": "%"},
      {"measurement": "Visual Weed Control (%) Obs", "setting": "[1]; 35 g ae/ha", "value": 20, "unit": "%"},
      {"measurement": "Visual Weed Control (%) Obs", "setting": "[2]; 8.75 g ae/ha", "value": 0, "unit": "%"},
      {"measurement": "Visual Weed Control (%) Obs", "setting": "[2]; 17.5 g ae/ha", "value": 0, "unit": "%"},
      {"measurement": "Visual Weed Control (%) Obs", "setting": "[2]; 35 g ae/ha", "value": 0, "unit": "%"},
      {"measurement": "Visual Weed Control (%) Obs", "setting": "[3]; 8.75 g ae/ha", "value": 0, "unit": "%"},
      {"measurement": "Visual Weed Control (%) Obs", "setting": "[3]; 17.5 g ae/ha", "value": 0, "unit": "%"},
      {"measurement": "Visual Weed Control (%) Obs", "setting": "[3]; 35 g ae/ha", "value": 30, "unit": "%"},
      {"measurement": "Visual Weed Control (%) Obs", "setting": "[4]; 8.75 g ae/ha", "value": 10, "unit": "%"},
      {"measurement": "Visual Weed Control (%) Obs", "setting": "[4]; 17.5 g ae/ha", "value": 40, "unit": "%"},
      {"measurement": "Visual Weed Control (%) Obs", "setting": "[4]; 35 g ae/ha", "value": 40, "unit": "%"},
      {"measurement": "Visual Weed Control (%) Obs", "setting": "[5]; 20 DAA, 10.6 g ae/ha", "value": 10, "unit": "%"},
      {"measurement": "Visual Weed Control (%) Obs", "setting": "[5]; 20 DAA, 21.2 g ae/ha", "value": 20, "unit": "%"}
    ]},
    {"smiles": "COc1c(Cl)ccc(-c2nc(C(=O)OCc3ccccc3)c(Cl)c(N)c2F)c1F", "note": "[Compound A Benzyl Ester, benzyl ester of 4-amino-3-chloro-5-fluoro-6-(4-chloro-2-fluoro-3-methoxy-phenyl)pyridine-2-carboxylic acid]", "values": [
      {"measurement": "Visual Weed Control (%) Obs", "setting": "[1]; 4.38 g ae/ha", "value": 0, "unit": "%"},
      {"measurement": "Visual Weed Control (%) Obs", "setting": "[1]; 8.75 g ae/ha", "value": 0, "unit": "%"},
      {"measurement": "Visual Weed Control (%) Obs", "setting": "[1]; 17.5 g ae/ha", "value": 25, "unit": "%"},
      {"measurement": "Visual Weed Control (%) Obs", "setting": "[2]; 4.38 g ae/ha", "value": 0, "unit": "%"},
      {"measurement": "Visual Weed Control (%) Obs", "setting": "[2]; 8.75 g ae/ha", "value": 0, "unit": "%"},
      {"measurement": "Visual Weed Control (%) Obs", "setting": "[2]; 17.5 g ae/ha", "value": 0, "unit": "%"},
      {"measurement": "Visual Weed Control (%) Obs", "setting": "[3]; 35 g ae/ha", "value": 50, "unit": "%"},
      {"measurement": "Visual Weed Control (%) Obs", "setting": "[3]; 70 g ae/ha", "value": 50, "unit": "%"},
      {"measurement": "Visual Weed Control (%) Obs", "setting": "[4]; 4.38 g ae/ha", "value": 40, "unit": "%"},
      {"measurement": "Visual Weed Control (%) Obs", "setting": "[4]; 8.75 g ae/ha", "value": 60, "unit": "%"},
      {"measurement": "Visual Weed Control (%) Obs", "setting": "[4]; 17.5 g ae/ha", "value": 75, "unit": "%"},
      {"measurement": "Visual Weed Control (%) Obs", "setting": "[5]; 20 DAA, 4.38 g ae/ha", "value": 50, "unit": "%"},
      {"measurement": "Visual Weed Control (%) Obs", "setting": "[5]; 20 DAA, 8.75 g ae/ha", "value": 0, "unit": "%"},
      {"measurement": "Visual Weed Control (%) Obs", "setting": "[5]; 20 DAA, 17.5 g ae/ha", "value": 90, "unit": "%"},
      {"measurement": "Visual Weed Control (%) Obs", "setting": "[5]; 21 DAA, 8.75 g ae/ha", "value": 0, "unit": "%"},
      {"measurement": "Visual Weed Control (%) Obs", "setting": "[5]; 21 DAA, 17.5 g ae/ha", "value": 0, "unit": "%"}
    ]},
    {"smiles": "CSC(=O)c1c(C(F)F)nc(C(F)(F)F)c(C(=O)SC)c1CC(C)C", "note": "[Dithiopyr, S,S′-dimethyl-2-(difluoromethyl)-4-(2-methylpropyl)-6-(trifluoromethyl)-3,5-pyridinedicarbothioate]", "values": [
      {"measurement": "Visual Weed Control (%) Obs", "setting": "[2]; 70 g ai/ha", "value": 0, "unit": "%"},
      {"measurement": "Visual Weed Control (%) Obs", "setting": "[4]; 70 g ai/ha", "value": 30, "unit": "%"}
    ]},
    {"smiles": "CCC(CC)Nc1c([N+](=O)[O-])cc(C)c(C)c1[N+](=O)[O-]", "note": "[Pendimethalin, N-(1-ethylpropyl)-3,4-dimethyl-2,6-dinitrobenzenamine, reference compound]", "values": [
      {"measurement": "Visual Weed Control (%) Obs", "setting": "[1]; 280 g ai/ha", "value": 20, "unit": "%"},
      {"measurement": "Visual Weed Control (%) Obs", "setting": "[1]; 560 g ai/ha", "value": 0, "unit": "%"},
      {"measurement": "Visual Weed Control (%) Obs", "setting": "[2]; 560 g ai/ha", "value": 0, "unit": "%"},
      {"measurement": "Visual Weed Control (%) Obs", "setting": "[3]; 280 g ai/ha", "value": 40, "unit": "%"},
      {"measurement": "Visual Weed Control (%) Obs", "setting": "[3]; 1120 g ai/ha", "value": 48, "unit": "%"},
      {"measurement": "Visual Weed Control (%) Obs", "setting": "[5]; 21 DAA, 280 g ai/ha", "value": 0, "unit": "%"},
      {"measurement": "Visual Weed Control (%) Obs", "setting": "[5]; 21 DAA, 560 g ai/ha", "value": 0, "unit": "%"}
    ]}
  ]
}
